The text below walks through data of ChEMBL document CHEMBL1201862, “PubChem BioAssay data set” (2004).

Common to all, as to assay: NCI tumour cell line growth inhibition, 48 h
Assay [1] relates to MDA-N.
The subject of assay [2] is Malme-3M.
Assay [3] deals with DU-145.
For assay [4], the system named is SNB-75.
The test system of assay [5] is NCI/ADR-RES.
For assay [6], the system named is NCI-H522.
For assay [7], the system named is BT-549.
In assay [8] the test system is MDA-MB-231.
Assay [9] concerns EKVX.
Assay [10] has as its system IGROV-1.
For assay [11], the system named is HOP-62.
The subject of assay [12] is LXFL 529.
Assay [13] has as its system UACC-62.
The test system of assay [14] is RPMI-8226.
Assay [15] relates to HOP-92.
Assay [16] has as its system HCC 2998.
The test system of assay [17] is NCI-H23.
The test system of assay [18] is HL-60.
For assay [19], the system named is SN12C.
Assay [20] deals with SF-539.

Each structure is given as a SMILES string.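 Compound exposure: 48 hours, 5 concentrations, 96-well plates. The concentration for 50% growth inhibition is given as GI50.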 Activity calls are given as the source filed them. No stated cut-off is given here; in the data, active = GI50 up to about 1.1 µM and inactive = higher.

With `CC1OC(CC(=O)O)CC2=C1C(=O)c1c(O)cccc1C2=O` (stereo not drawn) [NANAOMYCIN], the GI50 in assay [1] is 0.182 µM (active); in [2], 0.203 µM (active); in assay [3], 1.12 µM (inactive); in assay [4], 1.5 µM (inactive); in assay [5], 0.179 µM (active); in assay [6] it was 0.0278 µM (active). Besides, the GI50 in [7] is 0.116 µM (active); in [8], 0.218 µM (active); in [9], 0.708 µM (active); in assay [10], 0.36 µM (active); in assay [11] it was 1.55 µM (inactive); in assay [12], 0.0851 µM (active). The GI50 in assay [13] was 0.116 µM (active); in assay [14] it was 0.0447 µM (active); in assay [15], 0.125 µM (active); in assay [16], 0.468 µM (active); in [17] it was 0.56 µM (active); in assay [18] it was 0.016 µM (active). Further, the GI50 in assay [19] is 0.29 µM (active); in assay [20] it was 1.04 µM (active).

Take `CC1=CCP(C(F)(F)F)P(C(F)(F)F)C1` (stereo not drawn): the GI50 in assay [2], in [4], in assay [6], in assay [9], in [10] and in [11] was > 100 µM (inactive) in each case. The GI50 in assay [12], in [13], in assay [14], in [15], in assay [16] and in assay [17] was > 100 µM (inactive) each time. The GI50 in [18], in [19] and in [20] was > 100 µM (inactive) throughout.

With `Nc1nc(N)c2c(Cl)c(CNc3ccc(Cl)c(Cl)c3)ccc2n1`, the GI50 is < 0.01 µM (active) in assay [1]; 0.471 µM (active) in assay [2]; 0.15 µM (active) in assay [3]; 2.64 µM (inactive) in assay [4]; < 0.01 µM (active) in assay [5]; 0.0499 µM (active) in [6]. In addition, the GI50 in assay [7] is 4.49 µM (inactive); in assay [8], 1.52 µM (inactive); in assay [9], 2.87 µM (inactive); in [10], < 0.01 µM (active); in [11], 0.0171 µM (active); in assay [12] it was < 0.0278 µM (active). Moreover, the GI50 in assay [13] is < 0.01 µM (active); in [14] it was 0.181 µM (active); in assay [15] it was 0.445 µM (active); in assay [16] it was 0.0146 µM (active); in [17], 0.0102 µM (active); in assay [18], < 0.01 µM (active). Moreover, the results for the GI50 in assay [19] and in [20] were < 0.104 µM (active) and 0.016 µM (active), respectively.

`O=S(=O)(C/C(=N\O)c1ccccc1)c1ccccc1`: the GI50 in assay [2] was > 100 µM (inactive); in [4], > 100 µM (inactive); in assay [6] it was 57.9 µM (inactive); in assay [9], > 100 µM (inactive); in [10] it was > 100 µM (inactive); in assay [11], > 100 µM (inactive). For the same compound, the GI50 in assay [12], in assay [13], in assay [14], in assay [15], in [16] and in assay [17] was > 100 µM (inactive) each time. Besides, the GI50 in [18], in assay [19] and in assay [20] was > 100 µM (inactive) each time.

As for `CCOC(=O)/C(=C/c1cccc(Cl)c1)N(CC)CC`, the GI50 in [2] was 57.3 µM (inactive); in assay [4] it was 70.5 µM (inactive); in [6], 24.3 µM (inactive); in assay [9] it was 55.7 µM (inactive); in assay [10] it was 49.4 µM (inactive); in assay [11], 29.9 µM (inactive). Further, the GI50 in assay [12] was 46.7 µM (inactive); in [13], 33.9 µM (inactive); in assay [14], 36.7 µM (inactive); in [15] it was 25.5 µM (inactive); in assay [16], 79.1 µM (inactive); in [17], 27.7 µM (inactive). Moreover, the GI50 in assay [18] was 49.2 µM (inactive); in [19], 45.9 µM (inactive); in assay [20], 73.5 µM (inactive).

In the case of `Cn1cc(C(=O)c2ccccc2)cc(C(=O)c2ccccc2)c1=O`, the GI50 in assay [2], in assay [4], in [6], in assay [9], in assay [10] and in assay [11] was > 100 µM (inactive) in each case. The GI50 in assay [12], in assay [13], in assay [14], in [15], in assay [16] and in assay [17] was > 100 µM (inactive) in each case. In addition, the GI50 in [18], in [19] and in assay [20] was > 100 µM (inactive) throughout.

For `CCOC(=O)C(Cc1cc(OC)c(CC(C(=O)OCC)C(=O)OCC)cc1OC)C(=O)OCC`, the GI50 in assay [1] is > 100 µM (inactive); in assay [2] it was > 100 µM (inactive); in [3], > 100 µM (inactive); in [4], 28.6 µM (inactive); in assay [5], > 100 µM (inactive); in assay [6], > 100 µM (inactive). In addition, the GI50 in [7] was > 100 µM (inactive); in [8], 44.9 µM (inactive); in assay [9], > 100 µM (inactive); in assay [10], > 100 µM (inactive); in assay [11], > 59.3 µM (inactive); in [12], > 100 µM (inactive). The GI50 in assay [13] is > 100 µM (inactive); in assay [14] it was > 100 µM (inactive); in assay [15] it was 26.9 µM (inactive); in assay [16] it was > 100 µM (inactive); in assay [17], > 100 µM (inactive); in assay [18] it was > 100 µM (inactive). The GI50 in assay [19] is > 100 µM (inactive); in assay [20], 29.2 µM (inactive).

With `CC1(C)Oc2ccccc2[N+]([O-])=C1c1ccccc1`, the GI50 in assay [2], in assay [4], in assay [6], in assay [10], in assay [11] and in assay [12] was > 100 µM (inactive) throughout. Besides, the GI50 in [13], in assay [14], in assay [15], in [16], in assay [17] and in assay [18] was > 100 µM (inactive) in each case. In addition, the GI50 in assay [19] and in [20] was > 100 µM (inactive) each time.

Consider `CC(C1=CC=C2[C@@H]3CCC4CC(N(C)C)CC[C@]4(C)C3CC[C@]12C)N(C)C=O` (stereo partly drawn), for which the GI50 in assay [2] was > 100 µM (inactive); in assay [4], 52.8 µM (inactive); in assay [6], > 100 µM (inactive); in assay [10], > 100 µM (inactive); in assay [11], > 100 µM (inactive); in [12], > 100 µM (inactive). The GI50 in assay [13] was > 100 µM (inactive); in assay [14], 78.3 µM (inactive); in assay [15], > 100 µM (inactive); in assay [16], > 100 µM (inactive); in assay [17] it was > 100 µM (inactive); in assay [18], > 100 µM (inactive). In addition, the GI50 in [19] and in [20] was > 100 µM (inactive) in each case.

With `N#C/N=C(/N)NCN/C(N)=N\C#N`, the GI50 in [2], in assay [4], in assay [6], in [9], in assay [10] and in assay [11] was > 100 µM (inactive) in each case. Moreover, the GI50 in assay [12], in assay [13], in assay [14], in assay [15], in assay [16] and in assay [17] was > 100 µM (inactive) in each case. In addition, the GI50 in [18], in assay [19] and in assay [20] was > 100 µM (inactive) throughout.
